The values that follow are results of earlier work, collected in US20260345619A1 (Principia Biopharma Inc., priority 2023, published 2026).

The conditions of data set [1]: cited from earlier work.
Data set [2] has as its system 251 kinases sharing a common cysteine in their active site. To be noted: 1 μM; panel of 251 kinases; cited from earlier work.

Read-outs that look alike come from different tables or passages of the source.

In the case of benralizumab: anti-IL5 receptor, the efficacy entry in data set [1] (severe asthma, eosinophilic phenotype) is reported as “have shown efficacy”. `C=CC(=O)N1CCC[C@@H](n2nc(-c3ccc(Oc4ccccc4)cc3)c3c(N)ncnc32)C1` [ibrutinib, reference compound]: in data set [2], the “number of kinases inhibited (>90% inhibition)” value was 21 kinases. As for “omalizumab: anti-immunoglobulin E (IgE) agent”, the black box warning result in data set [1] (in vivo) is listed as “black box warning of potential for anaphylaxis”. The efficacy entry in data set [1] (severe, corticosteroid-refractory allergy-induced asthma) is recorded as “has shown efficacy”.
